Laboratory results taken from the supplement of paper PMC10307832.

Legend:
Experiment in all cases: relative viability (nuclei count vs DMSO), 5 days (fraction); higher = more cells survive
Sunitinib + Luminespib = compound: CCN(CC)CCNC(=O)c1c(C)[nH]c(/C=C2\C(=O)Nc3ccc(F)cc32)c1C [Sunitinib] + CCNC(=O)c1noc(-c2cc(C(C)C)c(O)cc2O)c1-c1ccc(CN2CCOCC2)cc1 [Luminespib] (partner 0.01 µM)
Summary of the method: (§1)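 Relative viability divides the nuclei count in treated wells by that in vehicle wells. Lung cancer cell lines were seeded in 1536-well plates, dosed by pin tool the next day, and fixed and stained after 5 days in one step with final 0.05% Triton X-100, 1% formaldehyde and 1 ug/ml Hoechst. Dosing was a single drug or a fixed anchor-drug dose plus five library-drug doses (not always all listed) in √10 steps, and values are medians of duplicate plates imaged at 4×.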

Sunitinib + Foretinib = compound: CCN(CC)CCNC(=O)c1c(C)[nH]c(/C=C2\C(=O)Nc3ccc(F)cc32)c1C [Sunitinib] + COc1cc2c(Oc3ccc(NC(=O)C4(C(=O)Nc5ccc(F)cc5)CC4)cc3F)ccnc2cc1OCCCN1CCOCC1 [Foretinib] (partner 0.25 µM)
Summary of the method: as §1

Sunitinib + Dasatinib = compound: CCN(CC)CCNC(=O)c1c(C)[nH]c(/C=C2\C(=O)Nc3ccc(F)cc32)c1C [Sunitinib] + Cc1nc(Nc2ncc(C(=O)Nc3c(C)cccc3Cl)s2)cc(N2CCN(CCO)CC2)n1 [Dasatinib] (partner 0.075 µM)
Summary of the method: as §1

Sunitinib + Decitabine = compound: CCN(CC)CCNC(=O)c1c(C)[nH]c(/C=C2\C(=O)Nc3ccc(F)cc32)c1C [Sunitinib] + Nc1ncn([C@H]2C[C@H](O)[C@@H](CO)O2)c(=O)n1 [Decitabine] (partner 2 µM)
Summary of the method: as §1

Cell Line	relative viability (Sunitinib + Luminespib; first compound 0.02 µM)	relative viability (Sunitinib + Luminespib; first compound 0.06325 µM)	relative viability (Sunitinib + Luminespib; first compound 0.2 µM)	relative viability (Sunitinib + Luminespib; first compound 0.6325 µM)	relative viability (Sunitinib + Luminespib; first compound 2 µM)	relative viability (Sunitinib + Foretinib; first compound 0.02 µM)	relative viability (Sunitinib + Foretinib; first compound 0.06325 µM)	relative viability (Sunitinib + Foretinib; first compound 0.2 µM)	relative viability (Sunitinib + Foretinib; first compound 0.6325 µM)	relative viability (Sunitinib + Foretinib; first compound 2 µM)	relative viability (Sunitinib + Dasatinib; first compound 0.02 µM)	relative viability (Sunitinib + Dasatinib; first compound 0.06325 µM)	relative viability (Sunitinib + Dasatinib; first compound 0.2 µM)	relative viability (Sunitinib + Dasatinib; first compound 0.6325 µM)	relative viability (Sunitinib + Dasatinib; first compound 2 µM)	relative viability (Sunitinib + Decitabine; first compound 0.02 µM)	relative viability (Sunitinib + Decitabine; first compound 0.06325 µM)	relative viability (Sunitinib + Decitabine; first compound 0.6325 µM)	relative viability (Sunitinib + Decitabine; first compound 2 µM)	relative viability (Sunitinib + Decitabine; first compound 0.2 µM)
201T	1.05	1.05	1.05	1.08	1.03	1.01	1.1	1.22	1.17	1.01	0.542	0.56	0.57	0.571	0.528	0.838	0.91	0.872	0.88	–
A549	–	–	–	–	–	1.06	0.951	1.09	1.05	0.974	–	–	–	–	–	0.248	0.293	0.272	0.306	0.252
A-427	0.923	1.08	1.13	–	0.903	1.03	1.12	1.08	1.1	1.11	0.66	0.641	0.787	0.723	0.692	0.547	0.591	0.539	0.625	0.57
ABC-1	0.407	0.609	0.533	0.622	0.861	1.01	1.07	1.3	1.26	1	0.561	0.609	0.495	0.513	0.49	1.01	0.926	1.22	0.849	1.07
BEN	0.414	0.453	0.396	0.53	0.333	0.598	0.704	0.576	0.665	0.644	0.31	0.301	0.277	0.38	0.309	0.698	0.766	0.62	0.715	0.7
CAL-12T	0.364	0.41	0.385	0.369	0.203	1.07	1.27	1.32	1.03	1.28	0.36	0.446	0.442	0.468	0.332	–	–	–	–	–
COR-L23	0.647	0.658	0.881	0.831	0.57	0.972	0.945	1.14	0.961	0.969	0.489	0.522	0.622	0.533	0.542	0.435	0.482	0.505	0.451	0.426
COR-L 105	0.665	0.706	0.744	0.914	0.686	1.07	1.22	0.952	1.12	1.12	0.316	0.361	0.286	0.379	0.543	0.692	0.734	0.649	0.607	0.663
Calu-6	–	–	–	–	–	0.836	0.951	0.913	0.963	–	–	–	–	–	–	–	–	–	–	–
ChaGo-K-1	0.587	0.662	0.784	0.709	0.724	0.852	0.906	1	0.914	0.869	0.529	0.753	0.575	0.571	0.598	0.511	0.485	0.537	0.555	0.533
EBC-1	–	–	–	–	–	0.101	0.112	0.0979	0.112	0.119	–	–	–	–	–	–	–	–	–	–
HCC-44	0.949	1.1	1.5	0.972	1.14	–	–	–	–	–	–	–	–	–	–	0.931	1.04	0.951	0.949	0.99
HCC-78	–	–	–	–	–	0.527	0.588	0.525	0.545	0.613	0.39	0.313	0.329	0.315	0.358	0.709	0.69	0.683	0.726	0.737
HCC-366	–	–	–	–	–	0.864	0.908	0.919	0.827	0.871	0.526	0.645	0.622	0.668	0.574	0.314	0.361	0.313	0.408	0.365
IA-LM	–	–	–	–	–	1.12	1.32	1.25	1.14	1.19	–	–	–	–	–	–	–	–	–	–
NCI-H522	0.951	1.11	1.21	1.14	1.28	–	–	–	–	–	0.731	1.05	0.899	1.04	0.923	0.594	0.675	0.719	0.717	0.735
NCI-H1299	–	–	–	–	–	1.07	1.15	1.14	1.08	1.12	–	–	–	–	–	–	–	–	–	–
NCI-H1563	0.54	0.566	0.5	0.517	0.479	0.822	1.05	0.999	1.03	0.993	0.487	0.505	0.441	0.422	0.489	–	–	–	–	–
NCI-H1648	–	–	–	–	–	–	–	–	–	–	–	–	–	–	–	0.46	0.647	0.55	0.681	0.633
NCI-H1703	–	–	–	–	–	0.333	0.25	0.284	0.306	0.254	–	–	–	–	–	–	–	–	–	–
NCI-H1792	–	0.38	0.622	0.483	0.426	–	–	–	–	–	0.678	0.799	1.02	0.754	0.74	0.457	0.594	0.527	0.591	0.625
NCI-H2228	0.138	0.145	0.148	0.177	0.114	0.844	0.833	0.963	0.842	0.657	0.526	0.607	0.613	0.494	0.408	–	–	–	–	–
